Tests used:
Assay in all cases: KINOMEscan binding
EPHA3 = target: T1, EPHA3 (Homo sapiens, UniProt P29320); details: read-out: Percent Control
T1 construct: purchased Eurofins DiscoverX KINOMEscan

FGFR3 = target: T2, FGFR3 (Homo sapiens, UniProt P22607); details: read-out: Percent Control
T2 construct: purchased Eurofins DiscoverX KINOMEscan

HIPK1 = target: T3, HIPK1 (Homo sapiens, UniProt Q86Z02); details: read-out: Percent Control
T3 construct: purchased Eurofins DiscoverX KINOMEscan

DLK = target: T4, DLK (Homo sapiens, UniProt Q12852); details: read-out: Percent Control
T4 construct: purchased Eurofins DiscoverX KINOMEscan

PIM1 = target: T5, PIM1 (Homo sapiens, UniProt P11309); details: read-out: Percent Control
T5 construct: purchased Eurofins DiscoverX KINOMEscan

[1] = target: T6, ABL1(Y253F)-phosphorylated (Homo sapiens, UniProt P00519, Y253F); details: read-out: Percent Control
T6 construct: purchased Eurofins DiscoverX KINOMEscan

TSSK1B = target: T7, TSSK1B (Homo sapiens, UniProt Q9BXA7); details: read-out: Percent Control
T7 construct: purchased Eurofins DiscoverX KINOMEscan

CDK11 = target: T8, CDK11 (Homo sapiens, UniProt Q9BWU1); details: read-out: Percent Control
T8 construct: purchased Eurofins DiscoverX KINOMEscan

PIK3CG = target: T9, PIK3CG (Homo sapiens, UniProt P48736); details: read-out: Percent Control
T9 construct: purchased Eurofins DiscoverX KINOMEscan

CDKL1 = target: T10, CDKL1 (Homo sapiens, UniProt Q00532); details: read-out: Percent Control
T10 construct: purchased Eurofins DiscoverX KINOMEscan

PIK3CA(M1043I) = target: T11, PIK3CA(M1043I) (Homo sapiens, UniProt P42336, M1043I); details: read-out: Percent Control
T11 construct: purchased Eurofins DiscoverX KINOMEscan

JNK3 = target: T12, JNK3 (Homo sapiens, UniProt P53779); details: read-out: Percent Control
T12 construct: purchased Eurofins DiscoverX KINOMEscan

RIPK1 = target: T13, RIPK1 (Homo sapiens, UniProt Q13546); details: read-out: Percent Control
T13 construct: purchased Eurofins DiscoverX KINOMEscan

RIOK1 = target: T14, RIOK1 (Homo sapiens, UniProt Q9BRS2); details: read-out: Percent Control
T14 construct: purchased Eurofins DiscoverX KINOMEscan

FLT3(N841I) = target: T15, FLT3(N841I) (Homo sapiens, UniProt P36888, N841I); details: read-out: Percent Control
T15 construct: purchased Eurofins DiscoverX KINOMEscan

CDC2L5 = target: T16, CDC2L5 (Homo sapiens, UniProt Q14004); details: read-out: Percent Control
T16 construct: purchased Eurofins DiscoverX KINOMEscan
Description: (§1) This platform contains 468 recombinant human kinases (more than 80% coverage) in which 56 disease-relevant mutants are included. The recombinant DNA-tagged kinases were incubated with the probe ligands immobilized to a solid support, and then the level of the captured kinases on the solid support was measured using quantitative PCR.

PRP4 = target: T17, PRP4 (Homo sapiens, UniProt Q13523); details: read-out: Percent Control
T17 construct: purchased Eurofins DiscoverX KINOMEscan
T17 sequence (Q13523 whole entry): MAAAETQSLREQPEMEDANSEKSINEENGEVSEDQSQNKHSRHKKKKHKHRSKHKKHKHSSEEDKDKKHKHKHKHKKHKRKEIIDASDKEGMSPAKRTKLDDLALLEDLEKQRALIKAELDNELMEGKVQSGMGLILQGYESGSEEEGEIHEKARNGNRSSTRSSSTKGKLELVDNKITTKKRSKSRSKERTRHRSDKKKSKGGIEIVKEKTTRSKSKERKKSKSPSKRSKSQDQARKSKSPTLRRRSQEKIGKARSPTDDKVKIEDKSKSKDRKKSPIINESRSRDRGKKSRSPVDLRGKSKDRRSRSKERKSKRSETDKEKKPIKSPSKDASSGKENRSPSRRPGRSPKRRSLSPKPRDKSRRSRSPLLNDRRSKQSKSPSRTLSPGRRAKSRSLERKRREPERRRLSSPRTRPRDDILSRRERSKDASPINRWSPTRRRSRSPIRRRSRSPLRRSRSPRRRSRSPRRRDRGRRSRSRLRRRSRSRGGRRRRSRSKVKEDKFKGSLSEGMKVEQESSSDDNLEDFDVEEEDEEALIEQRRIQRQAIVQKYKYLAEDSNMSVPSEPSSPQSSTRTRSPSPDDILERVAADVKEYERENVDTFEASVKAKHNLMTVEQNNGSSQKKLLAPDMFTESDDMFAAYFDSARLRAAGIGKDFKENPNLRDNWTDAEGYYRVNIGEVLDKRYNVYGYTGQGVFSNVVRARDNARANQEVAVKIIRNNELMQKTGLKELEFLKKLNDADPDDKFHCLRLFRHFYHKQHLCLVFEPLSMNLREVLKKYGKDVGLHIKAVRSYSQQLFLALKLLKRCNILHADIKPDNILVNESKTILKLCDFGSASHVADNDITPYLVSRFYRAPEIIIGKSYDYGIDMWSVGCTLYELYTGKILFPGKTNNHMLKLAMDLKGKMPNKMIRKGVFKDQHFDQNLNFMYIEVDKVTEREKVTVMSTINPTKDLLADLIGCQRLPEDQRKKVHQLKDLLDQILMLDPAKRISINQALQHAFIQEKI
Description: as §1

IKK-beta = target: T18, IKK-beta (Homo sapiens, UniProt O14920); details: read-out: Percent Control
T18 construct: purchased Eurofins DiscoverX KINOMEscan

NLK = target: T19, NLK (Homo sapiens, UniProt Q9UBE8); details: read-out: Percent Control
T19 construct: purchased Eurofins DiscoverX KINOMEscan

MKNK1 = target: T20, MKNK1 (Homo sapiens, UniProt Q9BUB5); details: read-out: Percent Control
T20 construct: purchased Eurofins DiscoverX KINOMEscan

ERK4 = target: T21, ERK4 (Homo sapiens, UniProt P31152); details: read-out: Percent Control
T21 construct: purchased Eurofins DiscoverX KINOMEscan

CSNK2A1 = target: T22, CSNK2A1 (Homo sapiens, UniProt P68400)
T22 construct: purchased Eurofins DiscoverX KINOMEscan
T22 sequence (P68400 whole entry): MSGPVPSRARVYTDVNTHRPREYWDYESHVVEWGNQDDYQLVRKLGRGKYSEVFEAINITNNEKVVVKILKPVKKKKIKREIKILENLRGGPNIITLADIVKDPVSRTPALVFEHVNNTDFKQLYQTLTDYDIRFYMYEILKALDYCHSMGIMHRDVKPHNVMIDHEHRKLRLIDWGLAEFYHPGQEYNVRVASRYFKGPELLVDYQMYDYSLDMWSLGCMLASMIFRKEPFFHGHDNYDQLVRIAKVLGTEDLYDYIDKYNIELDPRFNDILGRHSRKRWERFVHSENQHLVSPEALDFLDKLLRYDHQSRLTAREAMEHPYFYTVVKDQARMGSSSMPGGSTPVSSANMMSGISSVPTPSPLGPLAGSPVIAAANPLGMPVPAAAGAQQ

PIM2 = target: T23, PIM2 (Homo sapiens, UniProt Q9P1W9); details: read-out: Percent Control
T23 construct: purchased Eurofins DiscoverX KINOMEscan

CSF1R = target: T24, CSF1R (Homo sapiens, UniProt P07333); details: read-out: Percent Control
T24 construct: purchased Eurofins DiscoverX KINOMEscan

PIK3CB = target: T25, PIK3CB (Homo sapiens, UniProt P42338); details: read-out: Percent Control
T25 construct: purchased Eurofins DiscoverX KINOMEscan

ERK2 = target: T26, ERK2 (Homo sapiens, UniProt P28482); details: read-out: Percent Control
T26 construct: purchased Eurofins DiscoverX KINOMEscan
T26 sequence (P28482 whole entry): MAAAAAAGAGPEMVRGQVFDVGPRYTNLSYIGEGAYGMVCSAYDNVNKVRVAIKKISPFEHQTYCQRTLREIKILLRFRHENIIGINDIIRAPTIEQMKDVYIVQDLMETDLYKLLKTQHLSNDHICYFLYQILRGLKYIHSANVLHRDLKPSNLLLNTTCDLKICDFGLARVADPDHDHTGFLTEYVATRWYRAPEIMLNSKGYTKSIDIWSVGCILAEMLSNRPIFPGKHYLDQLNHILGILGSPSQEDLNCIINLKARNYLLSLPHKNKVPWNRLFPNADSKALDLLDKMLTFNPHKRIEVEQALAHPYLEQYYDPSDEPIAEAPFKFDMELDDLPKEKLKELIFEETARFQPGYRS

RIPK2 = target: T27, RIPK2 (Homo sapiens, UniProt O43353); details: read-out: Percent Control
T27 construct: purchased Eurofins DiscoverX KINOMEscan

TAOK1 = target: T28, TAOK1 (Homo sapiens, UniProt Q7L7X3); details: read-out: Percent Control
T28 construct: purchased Eurofins DiscoverX KINOMEscan

TIE1 = target: T29, TIE1 (Homo sapiens, UniProt P35590); details: read-out: Percent Control
T29 construct: purchased Eurofins DiscoverX KINOMEscan

CLK1 = target: T30, CLK1 (Homo sapiens, UniProt P49759); details: read-out: Percent Control
T30 construct: purchased Eurofins DiscoverX KINOMEscan

DCAMKL2 = target: T31, DCAMKL2 (Homo sapiens, UniProt Q8N568); details: read-out: Percent Control
T31 construct: purchased Eurofins DiscoverX KINOMEscan

CSNK1G2 = target: T32, CSNK1G2 (Homo sapiens, UniProt P78368); details: read-out: Percent Control
T32 construct: purchased Eurofins DiscoverX KINOMEscan

ACVRL1 = target: T33, ACVRL1 (Homo sapiens, UniProt P37023); details: read-out: Percent Control
T33 construct: purchased Eurofins DiscoverX KINOMEscan
T33 sequence (P37023 22-503): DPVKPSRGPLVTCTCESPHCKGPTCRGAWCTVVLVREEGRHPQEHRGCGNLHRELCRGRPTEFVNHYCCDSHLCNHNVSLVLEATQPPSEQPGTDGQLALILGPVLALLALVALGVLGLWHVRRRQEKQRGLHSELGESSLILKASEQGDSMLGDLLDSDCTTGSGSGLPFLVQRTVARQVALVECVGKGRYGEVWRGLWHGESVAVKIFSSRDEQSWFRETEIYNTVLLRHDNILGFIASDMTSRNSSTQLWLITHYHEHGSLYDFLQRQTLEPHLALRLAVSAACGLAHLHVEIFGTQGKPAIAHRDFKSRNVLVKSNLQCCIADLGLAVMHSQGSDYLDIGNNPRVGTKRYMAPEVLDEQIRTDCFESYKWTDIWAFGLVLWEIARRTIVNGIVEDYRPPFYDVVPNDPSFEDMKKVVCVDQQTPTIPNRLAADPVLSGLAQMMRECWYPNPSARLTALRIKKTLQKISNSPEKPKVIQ

[2] = target: T34, ABL1(M351T)-phosphorylated (Homo sapiens, UniProt P00519, M351T); details: read-out: Percent Control
T34 construct: purchased Eurofins DiscoverX KINOMEscan

EPHA5 = target: T35, EPHA5 (Homo sapiens, UniProt P54756); details: read-out: Percent Control
T35 construct: purchased Eurofins DiscoverX KINOMEscan

FLT3(D835H) = target: T36, FLT3(D835H) (Homo sapiens, UniProt P36888, D835H); details: read-out: Percent Control
T36 construct: purchased Eurofins DiscoverX KINOMEscan

GRK7 = target: T37, GRK7 (Homo sapiens, UniProt Q8WTQ7); details: read-out: Percent Control
T37 construct: purchased Eurofins DiscoverX KINOMEscan

CAMK1B = target: T38, CAMK1B (Homo sapiens, UniProt Q6P2M8); details: read-out: Percent Control
T38 construct: purchased Eurofins DiscoverX KINOMEscan

INSRR = target: T39, INSRR (Homo sapiens, UniProt P14616); details: read-out: Percent Control
T39 construct: purchased Eurofins DiscoverX KINOMEscan
T39 sequence (P14616 27-1297): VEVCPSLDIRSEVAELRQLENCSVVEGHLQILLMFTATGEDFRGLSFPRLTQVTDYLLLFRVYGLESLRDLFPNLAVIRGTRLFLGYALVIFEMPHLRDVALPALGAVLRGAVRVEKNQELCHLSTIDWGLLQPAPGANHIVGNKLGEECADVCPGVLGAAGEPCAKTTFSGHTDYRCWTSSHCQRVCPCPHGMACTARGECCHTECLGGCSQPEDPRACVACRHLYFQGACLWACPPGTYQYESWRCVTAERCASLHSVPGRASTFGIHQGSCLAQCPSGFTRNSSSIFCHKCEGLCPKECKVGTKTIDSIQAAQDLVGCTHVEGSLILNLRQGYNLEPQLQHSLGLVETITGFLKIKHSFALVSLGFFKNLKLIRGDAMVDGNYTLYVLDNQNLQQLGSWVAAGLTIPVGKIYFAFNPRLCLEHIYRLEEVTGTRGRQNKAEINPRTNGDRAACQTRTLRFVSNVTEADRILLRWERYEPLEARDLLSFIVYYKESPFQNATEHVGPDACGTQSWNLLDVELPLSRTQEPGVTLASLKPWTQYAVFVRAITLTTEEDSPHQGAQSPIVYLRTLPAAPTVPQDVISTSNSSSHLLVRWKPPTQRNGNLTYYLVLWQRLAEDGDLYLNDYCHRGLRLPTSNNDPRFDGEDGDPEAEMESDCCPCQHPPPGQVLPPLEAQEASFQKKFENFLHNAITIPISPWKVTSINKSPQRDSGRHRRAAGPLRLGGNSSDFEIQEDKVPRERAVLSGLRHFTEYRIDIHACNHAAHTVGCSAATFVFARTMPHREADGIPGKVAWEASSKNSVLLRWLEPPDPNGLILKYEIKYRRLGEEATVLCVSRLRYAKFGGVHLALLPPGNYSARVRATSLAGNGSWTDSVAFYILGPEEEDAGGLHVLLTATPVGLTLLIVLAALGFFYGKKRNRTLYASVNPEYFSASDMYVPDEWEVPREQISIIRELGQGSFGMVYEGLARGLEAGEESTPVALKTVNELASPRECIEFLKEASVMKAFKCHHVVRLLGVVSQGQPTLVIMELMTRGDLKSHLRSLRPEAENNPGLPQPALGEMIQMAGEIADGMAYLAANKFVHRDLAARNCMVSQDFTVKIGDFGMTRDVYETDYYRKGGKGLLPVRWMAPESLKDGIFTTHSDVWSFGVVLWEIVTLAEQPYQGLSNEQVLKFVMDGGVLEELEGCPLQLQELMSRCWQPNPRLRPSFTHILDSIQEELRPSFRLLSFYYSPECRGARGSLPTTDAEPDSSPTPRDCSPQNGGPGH

[3] = target: T40, JAK1(JH2domain-pseudokinase) (Homo sapiens, UniProt P23458); details: read-out: Percent Control
T40 construct: JAK1(JH2domain-pseudokinase); purchased Eurofins DiscoverX KINOMEscan
T40 sequence (P23458 545-874 limits assumed): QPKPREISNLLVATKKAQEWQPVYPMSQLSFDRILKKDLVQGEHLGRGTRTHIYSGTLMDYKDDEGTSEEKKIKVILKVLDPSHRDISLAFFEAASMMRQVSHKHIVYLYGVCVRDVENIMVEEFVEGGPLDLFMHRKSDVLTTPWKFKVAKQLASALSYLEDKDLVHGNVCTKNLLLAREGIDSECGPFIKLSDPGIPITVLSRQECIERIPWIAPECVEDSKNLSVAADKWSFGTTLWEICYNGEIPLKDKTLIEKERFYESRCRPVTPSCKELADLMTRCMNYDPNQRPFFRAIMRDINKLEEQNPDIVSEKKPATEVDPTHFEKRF

FER = target: T41, FER (Homo sapiens, UniProt P16591); details: read-out: Percent Control
T41 construct: purchased Eurofins DiscoverX KINOMEscan

FLT3(D835Y) = target: T42, FLT3(D835Y) (Homo sapiens, UniProt P36888, D835Y); details: read-out: Percent Control
T42 construct: purchased Eurofins DiscoverX KINOMEscan

T3 sequence (Q86Z02 whole entry): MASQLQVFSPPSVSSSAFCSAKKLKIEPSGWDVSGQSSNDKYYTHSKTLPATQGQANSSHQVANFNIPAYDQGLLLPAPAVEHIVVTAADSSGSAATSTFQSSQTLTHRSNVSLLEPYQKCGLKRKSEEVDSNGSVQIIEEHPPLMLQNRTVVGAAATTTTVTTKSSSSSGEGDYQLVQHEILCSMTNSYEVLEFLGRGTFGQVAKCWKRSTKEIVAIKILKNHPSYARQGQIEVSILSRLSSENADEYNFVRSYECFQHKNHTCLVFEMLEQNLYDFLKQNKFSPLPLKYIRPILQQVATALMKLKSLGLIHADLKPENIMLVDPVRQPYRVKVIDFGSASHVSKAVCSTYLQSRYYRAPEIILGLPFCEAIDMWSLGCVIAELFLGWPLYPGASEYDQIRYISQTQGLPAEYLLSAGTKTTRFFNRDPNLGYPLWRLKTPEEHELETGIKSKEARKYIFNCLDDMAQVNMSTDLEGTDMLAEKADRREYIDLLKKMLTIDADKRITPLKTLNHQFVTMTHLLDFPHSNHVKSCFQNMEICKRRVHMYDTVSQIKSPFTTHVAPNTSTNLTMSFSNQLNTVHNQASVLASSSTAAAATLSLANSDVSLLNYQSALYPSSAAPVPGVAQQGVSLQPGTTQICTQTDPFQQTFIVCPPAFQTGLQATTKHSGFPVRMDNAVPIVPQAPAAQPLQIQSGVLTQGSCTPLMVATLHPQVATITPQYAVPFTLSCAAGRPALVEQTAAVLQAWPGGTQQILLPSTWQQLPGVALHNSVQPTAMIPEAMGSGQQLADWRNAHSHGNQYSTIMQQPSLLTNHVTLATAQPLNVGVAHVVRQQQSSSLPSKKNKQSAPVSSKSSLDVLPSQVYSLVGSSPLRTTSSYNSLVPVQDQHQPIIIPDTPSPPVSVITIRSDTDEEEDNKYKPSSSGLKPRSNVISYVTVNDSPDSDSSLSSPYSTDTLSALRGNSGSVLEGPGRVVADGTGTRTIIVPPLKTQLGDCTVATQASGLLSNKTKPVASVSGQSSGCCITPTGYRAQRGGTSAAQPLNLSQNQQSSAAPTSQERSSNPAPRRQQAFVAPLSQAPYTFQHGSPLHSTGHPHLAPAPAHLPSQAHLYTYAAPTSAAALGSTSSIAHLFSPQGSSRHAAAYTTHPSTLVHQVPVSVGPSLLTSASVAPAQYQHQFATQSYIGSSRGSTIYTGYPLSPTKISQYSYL

Compound `CC(C)NC(=O)COc1cccc(-c2nc(Nc3ccc4[nH]ncc4c3)c3ccccc3n2)c1` [KD025, 2-(3-(4-((1H-indazol-5-yl)amino)quinazolin-2-yl)phenoxy)-N-isopropylacetamide] has a remaining binding at 10 µM (EPHA3) of 75%, a remaining binding at 10 µM (FGFR3) of 72% and a remaining binding at 10 µM (HIPK1) of 58%. The remaining binding at 10 µM (DLK) was 58%, the remaining binding at 10 µM (PIM1) was 100% and the remaining binding at 10 µM [1] was 49%. The remaining binding at 10 µM (TSSK1B) was 76%, the remaining binding at 10 µM (CDK11) was 99% and the remaining binding at 10 µM (PIK3CG) was 82%. It also gave a remaining binding at 10 µM (CDKL1) of 56%, a remaining binding at 10 µM (PIK3CA(M1043I)) of 48% and a remaining binding at 10 µM (JNK3) of 78%. It also gave a remaining binding at 10 µM (RIPK1) of 86%, a remaining binding at 10 µM (RIOK1) of 6.2% and a remaining binding at 10 µM (FLT3(N841I)) of 19%. The remaining binding at 10 µM (CDC2L5) was 100%, the remaining binding at 10 µM (PRP4) was 15% and the remaining binding at 10 µM (IKK-beta) was 100%. It also gave a remaining binding at 10 µM (NLK) of 80%, a remaining binding at 10 µM (MKNK1) of 68% and a remaining binding at 10 µM (ERK4) of 100%. The “CK2α and CK2α’ inhibited less than ROCK2 (POC)” value (CSNK2A1; 10 μM) was 10 fold, the remaining binding at 10 µM (CSNK2A1; CSNK2A1, read-out: Percent Control) was 0.5% and the remaining binding at 10 µM (PIM2) was 85%. For the same compound, the remaining binding at 10 µM (CSF1R) was 99%, the remaining binding at 10 µM (PIK3CB) was 89% and the remaining binding at 10 µM (ERK2) was 79%. It also gave a remaining binding at 10 µM (RIPK2) of 92%, a remaining binding at 10 µM (TAOK1) of 71% and a remaining binding at 10 µM (TIE1) of 63%. The remaining binding at 10 µM (CLK1) was 57%, the remaining binding at 10 µM (DCAMKL2) was 79% and the remaining binding at 10 µM (CSNK1G2) was 60%. For the same compound, the remaining binding at 10 µM (ACVRL1) was 76%, the remaining binding at 10 µM [2] was 90% and the remaining binding at 10 µM (EPHA5) was 92%. For the same compound, the remaining binding at 10 µM (FLT3(D835H)) was 22%, the remaining binding at 10 µM (GRK7) was 80% and the remaining binding at 10 µM (CAMK1B) was 97%. For the same compound, the remaining binding at 10 µM (INSRR) was 83%, the remaining binding at 10 µM [3] was 39% and the remaining binding at 10 µM (FER) was 75%. The remaining binding at 10 µM (FLT3(D835Y)) was 46%.
